Experimental data published in patent US20200288710A1, “SUBSTITUTED SULPHONAMIDES FOR CONTROLLING ANIMAL PESTS” (BAYER CROPSCIENCE AKTIENGESELLSCHAFT, priority 2016, published 2020).

How the values were obtained:
Type in all cases: in vivo
Lucilia cuprina = Lucilia cuprina test; settings: 48 h, L1 larvae, after 2 days, read-out: efficacy (kill in %)
Method: Lucilia cuprina Test Solvent: dimethyl sulphoxide To produce a suitable preparation of active compound, 10 mg of active compound are mixed with 0.5 ml of dimethyl sulphoxide, and the concentrate is diluted with water to the desired concentration. About 20 L1 larvae of the Australian sheep blowfly (Lucilia cuprina) are transferred into a test vessel containing minced horsemeat and the active compound preparation of the desired concentration. After 2 days, the kill in % is determined. 100% means that all the larvae have been killed; 0% means that no larvae have been killed.

Myzus persicae [1] = assay: Myzus persicae spray test (Chinese cabbage leaf discs); settings: foliar, 120 h, 500 g/ha, after 5-6 days, read-out: efficacy
Summary of the method: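 Chinese cabbage leaf discs infested with all stages of green peach aphid were sprayed with compound formulated in acetone/DMF and emulsifier-containing water. Efficacy in % was scored after 5-6 days, with 100% meaning all aphids killed and 0% none killed.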

Myzus persicae [2] = assay: Myzus persicae oral test; settings: 120 h, oral uptake, after 5 days, read-out: efficacy
Summary of the method: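 Compound dissolved in acetone, diluted in water, then mixed 50:150 μl with IPL41 insect medium (33%+15% sugar). Mixed-population green peach aphids feed through a parafilm seal on the solution; mortality scored as % efficacy after 5 days (100% = all killed).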

Meloidogyne incognita = Meloidogyne incognita test; settings: 336 h, lettuce, after 14 days, read-out: nematicidal efficacy (formation of galls)
Summary of the method: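 Active compound in acetone, diluted with water, added to sand-filled vessels with M. incognita eggs/larvae and lettuce seeds. After 14 days, efficacy scored by root gall formation: 100% = no galls, 0% = galls equal to untreated control.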

Phaedon cochleariae = Phaedon cochleariae spray test; settings: foliar, 168 h, Chinese cabbage leaf discs, larvae, after 7 days, read-out: efficacy
Method: Phaedon cochleariae—Spray Test
To produce a suitable preparation of active compound, 1 part by weight of active compound is dissolved using the specified parts by weight of solvent and made up with water containing an emulsifier concentration of 1000 ppm until the desired concentration is attained. To produce further test concentrations, the formulation is diluted with emulsifier-containing water.
After 7 days, the efficacy in % is determined. 100% means that all the beetle larvae have been killed; 0% means that no beetle larvae have been killed.

Compound	pest or weed control at 100 ppm (Lucilia cuprina) [%]	pest or weed control at 500 g/ha (Myzus persicae [1]) [%]	pest or weed control at 20 ppm (Myzus persicae [2]) [%]	pest or weed control at 20 ppm (Meloidogyne incognita) [%]	pest or weed control at 500 g/ha (Phaedon cochleariae) [%]	pest or weed control at 4 ppm (Myzus persicae [2]; 4 ppm) [%]
Cn1cc(C(=O)NS(=O)(=O)c2ccccc2Cl)nc1-c1ncccc1Cl [Example 539]	100	90	100			
Cc1ccccc1S(=O)(=O)NC(=O)c1cn(C)c(-c2c(Cl)cccc2Cl)n1 [Example 25]	100	100	100			
Cc1ccccc1S(=O)(=O)NC(=O)c1cn(C)c(-c2ccccc2Cl)n1 [Example 54]	100	100	100	100		
Cn1cc(C(=O)NS(=O)(=O)c2ccc(Br)cc2C(F)(F)F)nc1-c1c(F)cccc1F [Example 449]		100	100	100	100	
Cn1cc(C(=O)NS(=O)(=O)c2ccc(Cl)cc2I)nc1-c1c(F)cccc1F [Example 439]		90	100	90	100	
Cc1ccc(S(=O)(=O)NC(=O)c2cn(C)c(-c3c(F)cccc3F)n2)c(Cl)c1 [Example 450]		100	90	100	100	
Cc1cccc(S(=O)(=O)NC(=O)c2cn(C)c(-c3c(F)cccc3F)n2)c1 [Example 176]		90	90	100	83	
Cn1cc(C(=O)NS(=O)(=O)c2ccccc2C(F)(F)F)nc1-c1c(F)cccc1Cl [Example 109]	100	100	100	90		
Cn1cc(C(=O)NS(=O)(=O)c2ccccc2I)nc1-c1ccccc1Cl [Example 428]		100	100	90	100	
Cn1cc(C(=O)NS(=O)(=O)c2ccc(F)cc2C(F)(F)F)nc1-c1c(F)cccc1F [Example 448]		100	100	90	100	
Cc1ccccc1S(=O)(=O)NC(=O)c1cn(C)c(-c2cc(Cl)ccc2Cl)n1 [Example 517]		90	100	100	100	
Cn1cc(C(=O)NS(=O)(=O)c2ccccc2Cl)nc1-c1c(Cl)cccc1Cl [Example 100]		100	100	90	100	
CCc1ccc(Cl)cc1S(=O)(=O)NC(=O)c1cn(C)c(-c2ncccc2F)n1 [Example 603]		90	100	90	100	
CCc1cccc(OC(F)F)c1S(=O)(=O)NC(=O)c1cn(C)c(-c2c(F)cccc2F)n1 [Example 339]		90	100	100	100	
Cc1ccc(F)cc1S(=O)(=O)NC(=O)c1cn(C)c(-c2cccc(Cl)c2Cl)n1 [Example 319]		100	100	90	100	
Cn1cc(C(=O)NS(=O)(=O)c2ccccc2C(F)(F)F)nc1-c1c(Cl)cccc1Cl [Example 23]	100	100	100		100	
Cc1ccccc1S(=O)(=O)NC(=O)c1cc(C)n(-c2ncccc2Cl)n1 [Example 274]	95	100	100	90		
CCc1ccc(Cl)cc1S(=O)(=O)NC(=O)c1cn(C)c(-c2c(F)cccc2F)n1 [Example 279]		90	100	100	100	

Compound	pest or weed control at 100 ppm (Lucilia cuprina) [%]	pest or weed control at 500 g/ha (Myzus persicae [1]) [%]	pest or weed control at 20 ppm (Myzus persicae [2]) [%]	pest or weed control at 20 ppm (Meloidogyne incognita) [%]	pest or weed control at 500 g/ha (Phaedon cochleariae) [%]	pest or weed control at 4 ppm (Myzus persicae [2]; 4 ppm) [%]
CCc1ccccc1S(=O)(=O)NC(=O)c1cn(C)c(-c2ncccc2Cl)n1 [Example 581]		100		100	100	100
Cc1cc(C(=O)NS(=O)(=O)c2c(Cl)cccc2Cl)nn1-c1ccccc1Cl [Example 269]		100	100	100	83	
Cn1cc(C(=O)NS(=O)(=O)c2cc(Cl)cc(Cl)c2)nc1-c1c(F)cccc1F [Example 188]		90	100	100	100	
Cc1ccc(C(F)(F)F)cc1S(=O)(=O)NC(=O)c1cn(C)c(-c2c(F)cccc2F)n1 [Example 399]		100	100	90	100	
Cc1ccccc1S(=O)(=O)NC(=O)c1cn(C)c(-c2ncccc2Br)n1 [Example 579]		100	100	90	100	
Cn1cc(C(=O)NS(=O)(=O)c2c(Br)cccc2C(F)(F)F)nc1-c1c(F)cccc1F [Example 373]		100	100	90	100	
COc1ccc(Cl)c(S(=O)(=O)NC(=O)c2cn(C)c(-c3c(F)cccc3F)n2)c1 [Example 92]	95	100	100			
Cc1cc(F)c(F)cc1S(=O)(=O)NC(=O)c1cn(C)c(-c2c(F)cccc2F)n1 [Example 289]		90	100	90	100	
Cn1cc(C(=O)NS(=O)(=O)c2cccc3ccccc23)nc1-c1c(F)cccc1F [Example 510]		100	100	90	100	
Cc1cccc(Cl)c1S(=O)(=O)NC(=O)c1cn(C)c(-c2ncccc2F)n1 [Example 599]		100	100	100	100	
COc1ccc(C)c(S(=O)(=O)NC(=O)c2cn(C)c(-c3ccccc3Cl)n2)c1 [Example 424]		90	100	90	100	
CSc1ccccc1S(=O)(=O)NC(=O)c1cn(C)c(-c2c(F)cccc2F)n1 [Example 383]	100	100	100		100	
Cc1ccc(Br)cc1S(=O)(=O)NC(=O)c1cn(C)c(-c2c(F)cccc2F)n1 [Example 398]		90	100	90	100	
Cn1cc(C(=O)NS(=O)(=O)c2cccc(Cl)c2I)nc1-c1c(F)cccc1F [Example 313]		90	100	90	100	
CCc1ccc(Cl)cc1S(=O)(=O)NC(=O)c1cn(C)c(-c2ccccc2Cl)n1 [Example 280]		90	100	90	100	
Cc1ccc(Cl)c(S(=O)(=O)NC(=O)c2cn(C)c(-c3c(F)cccc3F)n2)c1Cl [Example 434]		100	100	100	100	
Cc1ccccc1S(=O)(=O)NC(=O)c1cn(C)c(-c2sccc2Cl)n1 [Example 548]		90	90	90	83	
CCc1ccccc1S(=O)(=O)NC(=O)c1cn(C)c(-c2ncccc2F)n1 [Example 572]	100	100	100		83	
